Data: patent US20160206631A1, “OXYSTEROLS THAT ACTIVATE LIVER X RECEPTOR SIGNALING AND INHIBIT HEDGEHOG SIGNALING” (THE REGENTS OF THE UNIVERSITY OF CALIFORNIA, priority 2010, published 2016)

Experiments:
[1] = system: human pancreatic cancer cells; assay: Clonogenic growth of human pancreatic cancer cells in vitro; format: cell-based
[2] = system: human primary multiple myeloma cells derived from patients; assay: Clonogenic growth of primary multiple myeloma cells from patients in methylcellulose; format: cell-based; conditions: 1 μM, 96 hours, CD34+ and CD138+ depleted bone marrow mononuclear cells
[3] = system: L3.6p1 human pancreatic cancer cells; assay: Clonogenic growth of L3.6p1 pancreatic cancer cells in methylcellulose; format: cell-based; conditions: 72 hours treatment, colonies counted after 10 days
Protocol: (§1) Following treatment cells were harvested by washing cells twice with phosphate buffered saline (PBS) followed by enzymatically detaching with trypsin/EDTA. Cells were collected then washed twice with PBS. Cells were counted then resuspended in 500 uL of media. The volume of cells required for 2,000 cells from the control group was removed from each group then mixed with methylcellulose (1.2%) containing 30% fetal bovine serum, 1% bovine serum albumin, 10^-4 M 2-mercaptoethanol, and 2 mM L-glutamine. Cells were plated in low-attachment 6 well plates (1 ml/well), each group being plated in triplicate. Following 10 days of incubation, tumor cell colonies consisting of >40 cells were counted using an inverted microscope. Results are presented as the percentage of colonies from each treatment group compared to the control group (Table 2).

[4] = system: U2OS human osteosarcoma cells; assay: Anchorage-independent clonogenic growth of U2OS cells; format: cell-based; conditions: 1 μM, 72 hours, colonies after 10 days (FIG. 4)
Protocol: (§2) Next, cells were harvested and examined for clonogenic growth in non-adherent plates after 10 days of culturing. Data from a representative of two separate experiments are reported as the relative number of colonies formed by cells treated with LXR ligands relative to cells treated with control vehicle (% of control).
(§3) We examined whether LXR activation inhibits the clonogenic growth of human osteosarcoma cells using an anchorage-independent cell growth assay. Saos-2 and U2OS cells were seeded in standard tissue culture plates and treated for 72 hours with control vehicle or 1 μM of TO, 22R, or Oxy16. Following treatments with LXR ligands, the drugs were removed and the cells harvested and plated in methylcellulose media in non-adherent plates (Costar) and the cell colonies formed after 10 days were counted.

[5] = system: Hedgehog signaling pathway; assay: Ptch1 mRNA expression (Hh target gene) by Q-RT-PCR in Saos-2 cells; format: cell-based, human; conditions: Saos-2, 2% FBS, 72 hours; 2 or 4 τM TO, 4 μM cyclopamine (FIG. 5)
Protocol: Saos-2 cells were cultured in medium containing 2% FBS and were treated at confluence with 4 μM Cyc, 2 or 4 τM TO, alone or in combination for 72 hours. Expression of Ptch1 and Gli1 (data not shown) mRNA was measured by Q-RT-PCR and normalized to GAPDH.

REH human ALL cells = assay: Clonogenic growth of REH ALL cells; format: cell-based
Protocol: as §1
A similar experiment to that shown above for pancreatic cancer cells was performed using the human ALL cells, REH (Table 3).

Hedgehog signaling = assay: CAPAN-1 conditioned-medium-induced Hh target gene expression (Ptch1, HHIP, Gli1) in C3H10T1/2 cells; format: cell-based; conditions: C3H10T1/2, 48 hours; TO 2 μM, Oxy16 5 μM, Cyc 4 μM (FIG. 10)
Protocol: Next, cells were treated with DMEM containing 5% […] or CAPAN-1 CM in the presence or absence of TO, Oxy16, or Cyc. After 48 hours, RNA was extracted and analyzed by Q-RT-PCR for the expression of Hh target genes Ptch1, HHIP, and Gli1 and normalized to GAPDH expression.
As noted above, Hh signaling appears to play an important role in the initiation and progression of pancreatic cancer (26), and the inhibition of HE signaling using small molecule antagonists inhibits pancreatic cancer cells from growing in vitro and in vivo (50). […] Subsequently, Hh signaling in stromal cells provides a permissive milieu for tumor cells to grow. […] In this Example, we examine this possibility using an in vitro model system in which Hh signaling is induced in C3H10T1/2 embryonic fibroblasts by conditioned-medium (CM) from CAPAN-1 human pancreatic cancer cells.
(§4) In order to assess the functional activity of Hh proteins produced by CAPAN-1 cells, we examined the ability of CM to induce Hh target gene expression in C3H10T1/2 embryonic fibroblasts.

[6] = system: Saos-2 human osteosarcoma cells; assay: Anchorage-independent clonogenic growth of Saos-2 cells; format: cell-based; conditions: for clonogenic growth: Saos-2, 1 μM, 72 hours, colonies after 10 days (FIG. 4)
Protocol: as §2, §3

[7] = system: CAPAN-1 human pancreatic cancer cells; assay: Ihh and Shh mRNA expression in CAPAN-1 cells; format: cell-based; conditions: cyclopamine 4 μM, TO 2-5 μM, data not shown
Protocol: Expression of Shh and Ihh mRNA in human cultures of pancreatic cancer cells, CAPAN-1, L3.6p1, and E3LZ10.7 were analyzed by Q-RT-PCR and normalized to GAPDH expression. Cells were cultured in DMEM containing 10% FBS and RNA was extracted 3 days after seeding. Data from a representative experiment are reported as the mean of triplicate determinations±SD (p<0.001 for CAPAN-1 vs. other two cell types for Shh and 11 h mRNA expression).
Culturing CAPAN-1 cells in 1% vs. 10% FBS had no effects on their level of mRNA expression for 11th and Shh (data not shown), and treatment of CAPAN-1 cells with the Hh pathway inhibitor cyclopamine (4 μM) or the LXR agonist TO (2-5 μM) had no effect on the expression of Ihh or Shh mRNA in these cells (data not shown).

[8] = system: human NCI-H929 multiple myeloma cell line; assay: Clonogenic growth of NCI-H929 multiple myeloma cells; format: cell-based; conditions: 1 μM, 96 hours, colonies after 10 days (FIG. 6)
Protocol: NCI-11929 multiple myeloma cells were treated for 96 hours with control vehicle or 1 μM of each compound as shown. Next, drugs were removed and cells were plated in methylcellulose. Clonogenic growth of colonies determined after 10 days. Data are reported as percentage of colony number normalized to control group.
In order to examine the effect of LXR activation on the clonogenic growth of multiple myeloma cells, the human NCI-H929 multiple myeloma cell line was used.

LXR [9] = assay: LXR target gene expression in human pancreatic cancer cells
[10] = system: C3H10T1/2 embryonic fibroblasts; assay: CAPAN-1 conditioned-medium-induced alkaline phosphatase activity in C3H10T1/2 cells; format: cell-based; conditions: C3H10T1/2, 3 days; TO 2 μM, Oxy16 5 μM, Cyc 4 μM (FIG. 11)
Protocol: Next, cells were treated with DMEM containing 5% FBS or CAPAN-1 CM in the presence or absence of TO, Oxy16, or Cyc. After 3 days, alkaline phosphatase activity assay using whole cell lysates was performed.
as §4

LXR [11] = assay: LXR target gene expression by Q-RT-PCR in Saos-2 osteosarcoma cells; format: cell-based, human; conditions: for expression of LXR target genes ABCA1 and SREBP1c: Saos-2 cells (FIG. 2, 72 hours for TO)
Source text: Data from a representative experiment are reported as the Data from a representative experiment are reported as the mean of triplicate determinations±SD relative to the expression level of LXRα (p<0.001 for control vs. both concentrations of TO for ABCA1 and SREBP1c mRNA).
Culturing the cells in varying serum (FBS) concentrations from 1% to 10% had no effect on LXRs or LXR target gene expression levels at baseline.

[12] = system: NCI-H929 multiple myeloma cancer stem cells; assay: Percentage of cancer stem cells (CD138 negative, ALDH positive) in NCI-H929 cultures by flow cytometry; format: cell-based, human; conditions: 1 μM, 96 hours (FIGS. 7, 8)
Protocol: NCI-H929 multiple myeloma cells were treated for 96 hours with control vehicle or 1 μM of each compound as shown. Next, percentage of CD138negative cells in the same number of starting cells from each group was determined by flow cytometry.
NCI-H929 multiple myeloma cells were treated for 96 hours with control vehicle or 1 μM of each compound as shown. Next, percentage of ALDH+ cells in the same number of starting cells from each group was determined by flow cytometry.

Hedgehog pathway = conditions: cited from earlier work
LXR [13] = assay: ABCA1 (LXR target gene) expression by Q-RT-PCR in M2-10B4 bone marrow stromal cells
Protocol: This was measured by the ability of these molecules to induce the expression of LXR-target genes, including ABCA1, in M2-10B4 bone marrow stromal cells (MSC) after 48 hours of treatment (Table 1).

LXR [14] = assay: LXR target gene expression in C3H10T1/2 cells; conditions: C3H10T1/2, 48 hours
Source text: Next we examined whether LXR activation by LXR agonists inhibits CAPAN-1 CM-induced Hh target gene expression in fibroblastic cells.
As noted above, specific oxysterols are thought to be physiological ligands of LXRs that are classified as partial agonists based on their differential effects on the interaction of LXRs with co-activators and co-repressors compared to those induced by the full LXR agonist TO.

SMILES	colony formation (% of control) ([2]; Specimen # 1)	colony formation (% of control) ([2]; Specimen # 2)	Normalized Colony # (% of control) ([3]; 5 μM)	Raw Colony # ([3]; 5 μM)	Normalized Colony # (% of control) ([3]; 10 μM)	Raw Colony # ([3]; 10 μM)	clonogenic growth [4]	Ptch1 mRNA expression [5]	Normalized Colony # (% of control) (REH human ALL cells; 0.1 μM)	Raw Colony # (REH human ALL cells; 0.1 μM)	Normalized Colony # (% of control) (REH human ALL cells; 0.5 μM)	Raw Colony # (REH human ALL cells; 0.5 μM)	CAPAN-1 CM-induced expression of Hh target genes Ptch1, Gli1, HHIP (Hedgehog signaling)	clonogenic growth [6]	expression of Ihh or Shh mRNA [7]	clonogenic growth [8]	CAPAN-1 CM-induced ALP activity [10]	expression of LXR target genes ABCA1 and SREBP1c (LXR [11])	percentage of cancer stem cells (CD138 negative and ALDH positive cells) [12]	net effect of the LXR agonist on the Hedgehog pathway (Hedgehog pathway)	also measured
O=S(=O)(c1ccccc1)N(CC(F)(F)F)c1ccc(C(O)(C(F)(F)F)C(F)(F)F)cc1 [TO, TO901317, reference compound]	27 % of control	18 % of control	41 % of control	100	15 % of control	37	significant inhibition	significant inhibition	48 % of control	44	37 % of control	34	significantly inhibited	significant inhibition	no effect	inhibited clonogenic growth	significantly inhibited	robust expression	significantly reduced		clonogenic growth [1]: significantly inhibit; expression of LXR target genes (LXR [9]): induce the expression of LXR target genes
C=C(C)CCC[C@](C)(O)C1CCC2C3CC=C4C[C@@H](O)CC[C@]4(C)C3CC[C@@]21C (stereo partly shown) [Oxy 13]																				leave the Hedgehog pathway active	
CC(C)CC[C@@H](O)[C@](C)(O)[C@H]1CC[C@H]2[C@@H]3CC=C4C[C@@H](O)CC[C@]4(C)[C@H]3CC[C@]12C [Oxy16, (2R,3R)-2-((3S,8S,9S,10R,13S,14S,17S)-3-Hydroxy-10,13-dimethyl-2,3,4,7,8,9,10,11, 12,13,14,15,16,17-tetradecahydro-1H-cyclopenta[a]phenanthren-17-yl)-6-methyl-heptane-2,3-diol]	13 % of control	20 % of control	22 % of control	53	10 % of control	24	significant inhibition		71 % of control	65	15 % of control	14	inhibited	significant inhibition		inhibited clonogenic growth	inhibited	significant expression	significantly reduced		fold induction at 2 µM (LXR [13]; M210B4, 48 h, read-out: ABCA1 gene expression, Fold Induction ± SD): 2.1 ± 0.5; LXR signaling activation (LXR [13]; bone marrow stromal cells): Activate LXR Signaling; induction of ABCA1 and ABCG1 (LXR [14]): induction; potency in blocking clonogenic growth of osteosarcoma cells versus naturally occurring counterparts ([6]; osteosarcoma cells, compared with 22R and 20S): more potent than its naturally occurring counterparts; induction of LXR target genes ABCA1 and ABCG1 (LXR [11]; osteosarcoma cells, preliminary studies (FIG. 3)): strong induction
C[C@H](CCCC(C)(C)O)[C@H]1CC[C@H]2[C@@H]3CC=C4C[C@@H](O)CC[C@]4(C)[C@H]3CC[C@]12C [25-hydroxycholesterol]																				leave the Hedgehog pathway active	
CC1=C2C[C@H]3[C@@H](CC=C4C[C@@H](O)CC[C@@]43C)[C@@H]2CC[C@]12O[C@@H]1C[C@H](C)CN[C@H]1[C@H]2C [cyclopamine]								significant inhibition					completely inhibited		no effect		inhibited				
